From patent publication US20160297833A1, “THIENOPYRIMIDINES AS MKNK1 AND MKNK2 INHIBITORS” (BAYER PHARMA AKTIENGESELLSCHAFT, priority 2013, published 2016) come the findings set out here.

The structures appear in SMILES notation.

As a reminder, the IC50 is the concentration at which inhibition is half-maximal.

In the first assay the target is T1, human full-length MKNK1 (Homo sapiens, UniProt Q9BUB5, T385D).
T1 construct: GST (N); purchased Carna Biosciences 02-145; host or cells: insect cells (baculovirus expression system)
T1 sequence (Q9BUB5 1-424 isoform Q9BUB5-2 T344D): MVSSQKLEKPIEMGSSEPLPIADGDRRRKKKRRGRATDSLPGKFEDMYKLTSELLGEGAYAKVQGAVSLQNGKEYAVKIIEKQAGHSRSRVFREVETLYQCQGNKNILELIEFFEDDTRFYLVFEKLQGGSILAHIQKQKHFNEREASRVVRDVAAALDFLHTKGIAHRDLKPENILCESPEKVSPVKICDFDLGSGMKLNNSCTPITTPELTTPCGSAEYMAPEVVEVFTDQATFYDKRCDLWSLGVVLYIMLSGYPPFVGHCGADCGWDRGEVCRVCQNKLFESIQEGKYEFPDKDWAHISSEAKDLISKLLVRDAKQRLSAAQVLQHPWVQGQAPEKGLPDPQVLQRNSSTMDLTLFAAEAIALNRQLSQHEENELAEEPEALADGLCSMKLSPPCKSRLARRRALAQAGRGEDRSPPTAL
The assay is described as follows: MKNK1 kinase high ATP assay (TR-FRET).
Details: not given
The format is biochemical. The procedure, abridged:
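Full-length human MKNK1 (T385D) preincubated 15 min at 22 °C with compound in HEPES pH 7.5/MgCl2/DTT buffer; reaction with 2 mM ATP (final) and 0.06 μM biotinylated peptide (final), 30 min at 22 °C.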
(In general: TR-FRET usually uses a lanthanide donor and a delayed reading to cut background.)
`CCOc1cc2[nH]ncc2cc1Nc1ncnc2sc3c(c12)CC[C@H](C(=O)N1CCC(=O)CC1)C3` [Example 68, 1-({(7S)-4-[(6-Ethoxy-1H-indazol-5-yl)amino]-5,6,7,8-tetrahydro[1]benzothieno[2,3-d]pyrimidin-7-yl}carbonyl)piperidin-4-one] displayed an IC50 of 0.3 nM.

The assay is the same for the next values; noted with them: Table 1; MKNK1 kinase high ATP assay, 2 mM ATP; read-out: MKNK1 IC50.
For `COc1cc2[nH]ncc2cc1Nc1ncnc2sc3c(c12)CC[C@@H](C(=O)N(C)C(C)C)C3` [Example 27, (7R)-4-[(6-Methoxy-1H-indazol-5-yl)amino]-N-methyl-N-(propan-2-yl)-5,6,7,8-tetrahydro[1]benzothieno[2,3-d]pyrimidine-7-carboxamide], the IC50 was 38.9 nM.
On to `CN(C)CCCOc1cc2[nH]ncc2cc1Nc1ncnc2sc3c(c12)CC[C@H](C(=O)N(C)C)C3` [Example 203, (7S)-4-({6-[3-(Dimethylamino)propoxy]-1H-indazol-5-yl}amino)-N,N-dimethyl-5,6,7,8-tetrahydro[1]benzothieno[2,3-d]pyrimidine-7-carboxamide], for which the half-inhibitory concentration (IC50) worked out at 17.1 nM.
`COc1cc2[nH]ncc2cc1Nc1ncnc2sc3c(c12)CC[C@H](C(=O)N(C)CC(C)(C)OC)C3` [Example 204, (7S)-4-[(6-Methoxy-1H-indazol-5-yl)amino]-N-(2-methoxy-2-methylpropyl)-N-methyl-5,6,7,8-tetrahydro[1]benzothieno[2,3-d]pyrimidine-7-carboxamide]: the IC50 amounted to 0.9 nM.
The same measure, in the same setting: next, `COC[C@@H](C)N(C)C(=O)[C@H]1CCc2c(sc3ncnc(Nc4cc5cn[nH]c5cc4OC)c23)C1` [Example 284, (7S)-4-[(6-Methoxy-1H-indazol-5-yl)amino]-N-[(2R)-1-methoxypropan-2-yl]-N-methyl-5,6,7,8-tetrahydro[1]benzothieno[2,3-d]pyrimidine-7-carboxamide]: 0.7 nM.
As for `CN(C)C(=O)[C@H]1CCc2c(sc3ncnc(Nc4cc5cn[nH]c5cc4OCCN4CCCC4=O)c23)C1` [Example 193, (7S)—N,N-Dimethyl-4-({6-[2-(2-oxopyrrolidin-1-yl)ethoxy]-1H-indazol-5-yl}amino)-5,6,7,8-tetrahydro[1]benzothieno[2,3-d]pyrimidine-7-carboxamide], the half-maximal inhibitory concentration (IC50) amounted to 222 nM.
With `CN(C)C(=O)[C@H]1CCc2c(sc3ncnc(Nc4cc5cn[nH]c5cc4N4CCC(N(C)C)CC4)c23)C1` [Example 104, (7S)-4-({6-[4-(Dimethylamino)piperidin-1-yl]-1H-indazol-5-yl}amino)-N,N-dimethyl-5,6,7,8-tetrahydro[1]benzothieno[2,3-d]pyrimidine-7-carboxamide], the 50% inhibitory concentration (IC50) stood at 29.5 nM.
Still for that read-out and setting: to `COc1cc2[nH]ncc2cc1Nc1ncnc2sc3c(c12)CC[C@H](C(=O)N(C)CCO)C3` [Example 38, (7S)—N-(2-Hydroxyethyl)-4-[(6-methoxy-1H-indazol-5-yl)amino]-N-methyl-5,6,7,8-tetrahydro[1]benzothieno[2,3-d]pyrimidine-7-carboxamide] belongs 0.3 nM; to `COc1cc2[nH]ncc2cc1Nc1ncnc2sc3c(c12)CC[C@H](C(=O)N1CCOC[C@@H]1C)C3` [Example 30, {(7S)-4-[(6-Methoxy-1H-indazol-5-yl)amino]-5,6,7,8-tetrahydro[1]benzothieno[2,3-d]pyrimidin-7-yl}[(3S)-3-methylmorpholin-4-yl]methanone], 0.3 nM.
Same read-out and setting: next, `COCCN(C)C(=O)[C@H]1CCc2c(sc3ncnc(Nc4cc5cn[nH]c5cc4Cl)c23)C1` [Example 230, (7S)-4-[(6-Chloro-1H-indazol-5-yl)amino]-N-(2-methoxyethyl)-N-methyl-5,6,7,8-tetrahydro[1]benzothieno[2,3-d]pyrimidine-7-carboxamide]: 2.5 nM.
Still for that read-out and setting: to `C[C@@H]1COCCN1C(=O)[C@H]1CCc2c(sc3ncnc(Nc4cc5cn[nH]c5cc4OCCN(C)C)c23)C1` [Example 114, [(7S)-4-({6-[2-(Dimethylamino)ethoxy]-1H-indazol-5-yl}amino)-5,6,7,8-tetrahydro[1]benzothieno[2,3-d]pyrimidin-7-yl][(3R)-3-methylmorpholin-4-yl]methanone] belongs 34.2 nM.

The assay is the same for the next values; noted with them: Table 2; ratio of the IC50-value of an R-enantiomer and its corresponding S-enantiomer.
For the compound `CCOc1cc2[nH]ncc2cc1Nc1ncnc2sc3c(c12)CC[C@H](C(=O)N1CCC(=O)CC1)C3` [Example 68, 1-({(7S)-4-[(6-Ethoxy-1H-indazol-5-yl)amino]-5,6,7,8-tetrahydro[1]benzothieno[2,3-d]pyrimidin-7-yl}carbonyl)piperidin-4-one], the “Activity-Ratio MKNK1” value worked out at 9.0.
On to `COc1cc2[nH]ncc2cc1Nc1ncnc2sc3c(c12)CC[C@H](C(=O)N(C)CCO)C3` [Example 38, (7S)—N-(2-Hydroxyethyl)-4-[(6-methoxy-1H-indazol-5-yl)amino]-N-methyl-5,6,7,8-tetrahydro[1]benzothieno[2,3-d]pyrimidine-7-carboxamide], for which the “Activity-Ratio MKNK1” value is 28.1.
